Source: patent US20240400986A1, “MEMBRANE BOUND COMPOSITIONS AND METHODS RELATING TO SAME” (FLAGSHIP PIONEERING INNOVATIONS VII, LLC, priority 2021, published 2024)
Structures can show the parent of a compound that is named as a salt. Where two headings read alike, the source gives them in different places.

Key:
[1] = system: cardiomyocytic cell line derived from human ventricular heart tissue; assay: Small molecule compound screen of gigasome production in cardiomyocytic monocultures;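 as to all read-outs here: gigasomes shed into the culture medium were imaged by confocal microscopy and counted as round particles lacking nuclear signal, extrapolated to the whole well, fold change is relative to DMSO vehicle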; settings: for fold induction at 1 µM / fold induction at 0.01 µM / fold induction at 10 µM / fold induction at 0.1 µM: Homo sapiens, Cardiomyocyte, read-out: Fold Change of Gigasomes Produced vs. DMSO; for fold induction at 1 µM / fold induction at 0.01 µM / fold induction at 10 µM / fold induction at 0.1 µM / downregulation of gigasome production: 24 h; for Number of Gigasomes Produced / Fold Change of Gigasomes Produced vs. DMSO / downregulation of gigasome production: cardiomyocytes; for downregulation of gigasome production: doses 10-10,000 nM
[2] = system: cardiomyocytic cell line derived from human ventricular heart tissue; assay: Cell viability in cardiomyocyte compound screen (CellTiter-Glo); assay type: cell-based
[3] = system: neuronal cell line derived from human neuroblastoma
Experimental: For the screening, a total of 99 compounds (TargetMol) were divided in 5 groups. Each group included an untreated condition, a vehicular DMSO control, and a known high-gigasome producing condition to comparatively study gigasome production rates. As a cell death control group, 500 nM Staurosporine was added to induce apoptosis. Cultures were incubated for 24 hours under gigasome inducing conditions at concentrations ranging between 10 nM and 10,000 nM. Before the end of the treatment, live neuronal cultures were imaged. The Zeiss ZEN Blue software was used to distribute imaging fields of view (positions) to create an unbiased imaging sample of a well. 5 images were taken using a Zeiss LSM 900 confocal microscope. […] The BioApps ZEN software package was used to perform cell nucleus segmentation and counting. After 24 hours, gigasomes were harvested from the cell culture media by gently removing from the top of each 96-well ⅔ of the total volume without disturbing the cell layer (containing the settled gigasomes) and by adding to each well the same amount of PBS. […] Cells remaining in the 96-well plates were assessed for viability using CellTiter-Glo (Promega).

[4] = system: neuronal cell line derived from human neuroblastoma; assay: Small molecule compound screen of gigasome production in neuronal monocultures; settings: for fold induction at 0.01 µM / fold induction at 0.1 µM / fold induction at 1 µM / fold induction at 10 µM: Homo sapiens, 24 h, read-out: Fold Change of Gigasomes Produced vs. DMSO; for Number of Gigasomes Produced / Fold Change of Gigasomes Produced vs. DMSO: neuronal cells, 24 hours
Text: To quantify and characterize gigasome production using microscopy, while tracking cell viability/phenotype, a multi-readout system was developed that allowed simultaneous analysis of gigasomes harvested from cell culture media supernatants and respective gigasome producing cell viability. […] For the screening, a total of 99 compounds (TargetMol) were divided in 5 groups. Each group included an untreated condition, a vehicular DMSO control, and a known high-gigasome producing condition to comparatively study gigasome production rates. As a cell death control group, 500 nM Staurosporine was added to induce apoptosis. Cultures were incubated for 24 hours under gigasome inducing conditions at concentrations ranging between 10 nM and 10,000 nM. Before the end of the treatment, live neuronal cultures were imaged. The Zeiss ZEN Blue software was used to distribute imaging fields of view (positions) to create an unbiased imaging sample of a well. 5 images were taken using a Zeiss LSM 900 confocal microscope. […] The BioApps ZEN software package was used to perform cell nucleus segmentation and counting. After 24 hours, gigasomes were harvested from the cell culture media by gently removing from the top of each 96-well ⅔ of the total volume without disturbing the cell layer (containing the settled gigasomes) and by adding to each well the same amount of PBS. The wells were washed twice gently, and the gigasome-containing media/PBS wash was transferred into the well of a 384-well glass bottom plate. Cells remaining in the 96-well plates were assessed for viability using CellTiter-Glo (Promega).
For gigasome analysis in 384-well plates, the Zeiss ZEN Blue software was used to distribute positions to create an unbiased imaging sample of a well. 6 images per well were taken using a Zeiss LSM 900 confocal microscope.
A watershed binary segmentation step was performed to separate grouped objects. For each particle in the mask, characteristic parameters of the particle were calculated and saved.
Particles of interest were identified by thresholding by area and circularity. […] Circularity, defined by the formula 4pi(area/perimeter^2, was set to be between 0.8 and 1, where a value of 1.0 is a perfect circle, and a value of 0 is a line. Gigasomes were identified from the particles of interest by thresholding by mean nuclear signal. The nuclear signal threshold was set using a value equal to one fourth of a threshold value calculated by the Li auto-threshold algorithm applied to the distribution of all particles of interest. Particles of interest with nuclear signal below this value were considered “negative” for nuclear material and were identified as gigasomes. A sampling factor was calculated to extrapolate the total quantity of a type of object (particles, particles of interest, gigasomes) in the well. The sampling factor was the percentage of the well's area that was imaged. […] The normalized quantity or distribution of objects was described as a quantity or distribution of objects per 1000 cells.

[5] = Table 22, dose 1000 nM, 24 hours
[6] = Table 22, dose 10000 nM, 24 hours
[7] = Table 23 (down-regulators), dose 10 nM
[8] = Table 23 (down-regulators), dose 100 nM
[9] = Table 23 (down-regulators), dose 1000 nM
[10] = Table 23 (down-regulators), dose 10000 nM
[11] = Table 22, dose 10 nM, cardiomyocytes, 24 hours
[12] = Table 23 (down-regulators), dose 10 nM, cardiomyocytes
[13] = Table 23 (down-regulators), dose 100 nM, cardiomyocytes
[14] = Table 23 (down-regulators), dose 1000 nM, cardiomyocytes
[15] = Table 23 (down-regulators), dose 10000 nM, cardiomyocytes
[16] = Table 22, dose 100 nM, 24 hours
[17] = Table 22, dose 100 nM, cardiomyocytes, 24 hours
[18] = neuronal cells, dose 10 nM, 24 hours
[19] = neuronal cells, dose 100 nM, 24 hours
[20] = neuronal cells, dose 1000 nM, 24 hours
[21] = neuronal cells, dose 10000 nM, 24 hours

Compound: Nc1ncn([C@@H]2O[C@H](CO)[C@@H](O)[C@H]2O)c(=O)n1 [Compound 5-Azacytidine, 5-Azacytidine]
- fold induction at 1 µM [1]: 1 to 1.25
- Number of Gigasomes Produced [1, 5]: 150-175
- Viability ([2]; human, 24 h, 1000 nM): 50-75%

Compound: NC(=O)N1c2ccccc2C=Cc2ccccc21 [Carbamazepine]
- fold induction at 0.01 µM [1]: 1 to 1.25
- fold induction at 1 µM [1]: 1.25 to 1.5
- fold induction at 10 µM [1]: 1.25 to 1.5
- Number of Gigasomes Produced ([1]; Table 22, dose 10 nM, 24 hours): 200-225
- Number of Gigasomes Produced [1, 5]: 250-275
- Number of Gigasomes Produced [1, 6]: 250-275
- Viability ([2]; human, 24 h, 10 nM): >75%
- Viability ([2]; human, 24 h, 1000 nM): >75%
- Viability ([2]; human, 24 h, 10000 nM): >75%

Compound: O=S(=O)(c1ccccc1)N(CC(F)(F)F)c1ccc(C(O)(C(F)(F)F)C(F)(F)F)cc1 [Compound T0901317]
- fold induction at 10 µM [1]: 1 to 1.25
- Number of Gigasomes Produced [1, 6]: 150-175
- Viability ([2]; human, 24 h, 10000 nM): >75%

Compound: CC(N)=NCc1cccc(CN)c1.Cl.Cl [1400W dihydrochloride]
- Number of Gigasomes Produced ([1]; Table 22, dose 10 nM, 24 hours): 150-175
- Number of Gigasomes Produced [1, 7]: >150
- Number of Gigasomes Produced [1, 8]: 90-105
- Number of Gigasomes Produced [1, 9]: 90-105
- Number of Gigasomes Produced [1, 10]: 50-75
- Viability [2, 11]: 100%
- Viability [2, 12]: 100.0%
- Viability [2, 13]: 100.0%
- Viability [2, 14]: 100.0%
- Viability [2, 15]: 100.0%

Compound: O=C(Nc1ccncc1)c1cc([N+](=O)[O-])ccc1Cl [Compound T0070907]
- Fold Change of Gigasomes Produced vs. DMSO ([1]; Table 22, dose 10 nM, 24 hours): 1.0-1.25
- Number of Gigasomes Produced ([1]; Table 22, dose 10 nM, 24 hours): 150-175
- Fold Change of Gigasomes Produced vs. DMSO [1, 16]: 1.0-1.25
- Number of Gigasomes Produced [1, 16]: 150-175
- Viability [2, 11]: 100%
- Viability [2, 17]: 100%

Compound: O=C(O)c1cccnc1C(=O)O [Quinolinic acid]
- fold induction at 0.1 µM [1]: 1 to 1.25
- Number of Gigasomes Produced [1, 16]: 150-175
- Viability [2, 17]: 100%

Compound: C[C@@H]1COCCN1c1cc(=O)n2c(n1)N(Cc1cncc(Cl)c1)[C@H](C(F)(F)F)CC2 [SAR405]
- fold induction at 1 µM [1]: 1 to 1.25
- fold induction at 10 µM [1]: 1 to 1.25
- Number of Gigasomes Produced [1, 5]: 150-175
- Number of Gigasomes Produced [1, 6]: 200-225
- Viability ([2]; human, 24 h, 1000 nM): 100.0%
- Viability ([2]; human, 24 h, 10000 nM): >75%

Compound: COc1cc(C(C)=O)ccc1O [Apocynin]
- fold induction at 0.01 µM [1]: 1 to 1.25
- fold induction at 10 µM [1]: 1 to 1.25
- Number of Gigasomes Produced ([1]; Table 22, dose 10 nM, 24 hours): 150-175
- Number of Gigasomes Produced [1, 6]: 150-175
- Viability ([2]; human, 24 h, 10 nM): >75%
- Viability ([2]; human, 24 h, 10000 nM): >75%

Compound: Cn1c(=O)n(-c2ccc(C(C)(C)C#N)cc2)c2c3cc(-c4cnc5ccccc5c4)ccc3ncc21 [Dactolisib]
- fold induction at 10 µM [1]: 1.25 to 1.5
- Number of Gigasomes Produced [1, 6]: 150-175
- Viability ([2]; human, 24 h, 10000 nM): >75%

Compound: O=C(O)CC[N+](=O)[O-] [3-Nitropropanoic acid, reference compound]
- fold induction at 0.01 µM [1]: 0.75 to 1
- fold induction at 0.1 µM [1]: 0.75 to 1
- fold induction at 1 µM [1]: 0.25 to 0.5
- fold induction at 10 µM [1]: 0.25 to 0.5
- Number of Gigasomes Produced [1, 7]: 105-120
- Number of Gigasomes Produced [1, 8]: 90-105
- Number of Gigasomes Produced [1, 9]: 50-75
- Number of Gigasomes Produced [1, 10]: 35-50
- downregulation of gigasome production [1]: dose-dependent downregulation
- Viability [2, 12]: >75%
- Viability [2, 13]: 100.0%
- Viability [2, 14]: >75%
- Viability [2, 15]: 100.0%

Compound: Cc1cc(C)c(S(=O)(=O)N(Cc2ccc(-c3cccc(S(C)(=O)=O)c3)cc2)Cc2ccc(C(F)(F)F)o2)c(C)c1 [GSK2033]
- fold induction at 10 µM [1]: 1.25 to 1.5
- Number of Gigasomes Produced [1, 6]: 150-175
- Viability ([2]; human, 24 h, 10000 nM): 100%

Compound: CN(C)CCCSC(=N)N [Dimaprit dihydrochloride]
- fold induction at 0.01 µM [1]: 0.75 to 1
- fold induction at 0.1 µM [1]: 0.75 to 1
- fold induction at 1 µM [1]: 0.5 to 0.75
- fold induction at 10 µM [1]: 0.25 to 0.5
- Number of Gigasomes Produced [1, 7]: 90-105
- Number of Gigasomes Produced [1, 8]: 75-90
- Number of Gigasomes Produced [1, 9]: 50-75
- Number of Gigasomes Produced [1, 10]: 50-75
- Viability [2, 12]: 100.0%
- Viability [2, 13]: 100.0%
- Viability [2, 14]: >75%
- Viability [2, 15]: 100.0%

Compound: CC[C@H](CO)Nc1nc(NCc2ccccc2)c2ncn(C(C)C)c2n1 [Seliciclib]
- Viability [3, 18]: 100%
- Viability [3, 19]: 100%
- Viability [3, 20]: 100%
- Viability [3, 21]: 100%
- fold induction at 0.01 µM [4]: 0.75 to 1
- fold induction at 0.1 µM [4]: 0.75 to 1
- fold induction at 1 µM [4]: 0.75 to 1
- fold induction at 10 µM [4]: 0.5 to 0.75
- Number of Gigasomes Produced ([4]; dose 10 nM): 25-30
- Number of Gigasomes Produced ([4]; dose 100 nM): 25-30
- Number of Gigasomes Produced ([4]; dose 1000 nM): 25-30
- Number of Gigasomes Produced ([4]; dose 10000 nM): 15-20

Compound: CCN(CC)CCNC(=O)c1c(C)[nH]c(/C=C2\C(=O)Nc3ccc(F)cc32)c1C [Sunitinib]
- fold induction at 10 µM [1]: 1.5 to 1.75
- Number of Gigasomes Produced [1, 6]: 200-225
- Viability ([2]; human, 24 h, 10000 nM): 50-75%

Compound: O=C(Nc1ccc(O)c(C(=O)O)c1)c1cccc(NC(=O)c2ccco2)c1 [OSS128167]
- Viability [3, 18]: 100%
- Viability [3, 19]: >75%
- Viability [3, 20]: 100%
- Fold Change of Gigasomes Produced vs. DMSO ([4]; dose 10 nM): 1.0-1.25
- Number of Gigasomes Produced ([4]; dose 10 nM): >40
- Fold Change of Gigasomes Produced vs. DMSO ([4]; dose 100 nM): 0.75-1.0
- Number of Gigasomes Produced ([4]; dose 100 nM): 25-30
- Fold Change of Gigasomes Produced vs. DMSO ([4]; dose 1000 nM): 0.75-1.0
- Number of Gigasomes Produced ([4]; dose 1000 nM): 25-30

Compound: COC(=O)C=Cc1ccccc1 [Methyl cinnamate]
- fold induction at 1 µM [1]: 1.25 to 1.5
- Number of Gigasomes Produced [1, 5]: 150-175
- Viability ([2]; human, 24 h, 1000 nM): >75%

Compound: C=C(C)[C@@H]1CC[C@]2(C(=O)O)CC[C@]3(C)[C@H](CC[C@@H]4[C@@]5(C)CC[C@H](O)C(C)(C)[C@@H]5CC[C@]43C)[C@@H]12 [Betulinic acid]
- Viability ([3]; human, 24 h, 10 nM): 100%
- Viability ([3]; human, 24 h, 100 nM): 100%
- Viability ([3]; human, 24 h, 10000 nM): 100%
- fold induction at 0.01 µM [4]: 0.5 to 0.75
- fold induction at 0.1 µM [4]: 1.25 to 1.5
- fold induction at 10 µM [4]: 1.5 to 1.75
- Number of Gigasomes Produced ([4]; dose 10 nM): <35
- Number of Gigasomes Produced ([4]; dose 100 nM): 55-65
- Number of Gigasomes Produced ([4]; dose 10000 nM): 55-65

Compound: CN1C(=N)N[C@](C)(c2cc(NC(=O)c3ccc(F)cn3)ccc2F)CS1(=O)=O [Verubecestat]
- Viability [3, 18]: 100%
- Viability [3, 19]: 100%
- Viability [3, 20]: 100%
- Viability [3, 21]: 100%
- fold induction at 0.01 µM [4]: 0.75 to 1
- fold induction at 0.1 µM [4]: 0.5 to 0.75
- fold induction at 1 µM [4]: 0.5 to 0.75
- fold induction at 10 µM [4]: 0.5 to 0.75
- Number of Gigasomes Produced ([4]; dose 10 nM): 35-40
- Number of Gigasomes Produced ([4]; dose 100 nM): 25-30
- Number of Gigasomes Produced ([4]; dose 1000 nM): 20-25
- Number of Gigasomes Produced ([4]; dose 10000 nM): 20-25

Compound: N#C/C(=C\c1cn(-c2ccccc2)c2ccccc12)C(=O)O [UK-5099, reference compound]
- downregulation of gigasome production [1]: dose-dependent downregulation
- Viability [3, 18]: 100%
- Viability [3, 19]: 100%
- Viability [3, 20]: 100%
- Viability [3, 21]: 100%
- Fold Change of Gigasomes Produced vs. DMSO ([4]; dose 10 nM): 0.5-0.75
- Number of Gigasomes Produced ([4]; dose 10 nM): 20-25
- Fold Change of Gigasomes Produced vs. DMSO ([4]; dose 100 nM): 0.5-0.75
- Number of Gigasomes Produced ([4]; dose 100 nM): 15-20
- Fold Change of Gigasomes Produced vs. DMSO ([4]; dose 1000 nM): 0.5-0.75
- Number of Gigasomes Produced ([4]; dose 1000 nM): 15-20
- Fold Change of Gigasomes Produced vs. DMSO ([4]; dose 10000 nM): 0.25-0.5
- Number of Gigasomes Produced ([4]; dose 10000 nM): 10-15

Compound: CC(/C=C/C(=O)NO)=C\[C@@H](C)C(=O)c1ccc(N(C)C)cc1 [Trichostatin A]
- Viability [3, 20]: 50-75%
- Fold Change of Gigasomes Produced vs. DMSO ([4]; dose 1000 nM): 1.75-2.0
- Number of Gigasomes Produced ([4]; dose 1000 nM): 55-65

Compound: NC1=N[C@@]2(c3cc(NC(=O)c4ccc(F)cn4)ccc3F)COC[C@H]2CS1 [LY288672, reference compound]
- fold induction at 1 µM [1]: 1.5 to 1.75
- Number of Gigasomes Produced [1, 5]: 175-200
- Viability ([2]; human, 24 h, 1000 nM): >75%
